Measured values as given in patent US20090247559A1 (Exelixis, Inc., priority 2007, published 2009).
pIC50: −log10 of the molar value. Where two headings read alike, the source gives them in different places.

Tests used:
[1] = biological target: CDC7 (Homo sapiens, UniProt O00311); experiment: CDC7 inhibition, biochemical chemiluminescence assay (Kinase Glo, IC50 determination)
How it was run: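 CDC7 enzyme preincubated with compound 10 min at ambient temperature, then ATP mix in Tris Base added; reaction 90 min at 24-27 °C. Remaining ATP quantified by Kinase Glo luminescence to give IC50.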

[2] = biological target: PIM (PIM-1, PIM-2, and/or PIM-3); experiment: PIM-1, PIM-2 and PIM-3 inhibition, biochemical chemiluminescence assays (Kinase Glo, IC50 determination); settings: Table 1 activity class; PIM refers to PIM-1, PIM-2, and/or PIM-3; read-out: PIM IC50 (Activity B)
[3] = biological target: CK2 (Homo sapiens, UniProt P68400); experiment: CK2 inhibition, biochemical chemiluminescence holoenzyme assay (Kinase Glo, IC50 determination); settings: Table 1 activity class; symbol given only if active; read-out: CK2 IC50 (Activity C)
CK2, sequence (P68400 whole entry): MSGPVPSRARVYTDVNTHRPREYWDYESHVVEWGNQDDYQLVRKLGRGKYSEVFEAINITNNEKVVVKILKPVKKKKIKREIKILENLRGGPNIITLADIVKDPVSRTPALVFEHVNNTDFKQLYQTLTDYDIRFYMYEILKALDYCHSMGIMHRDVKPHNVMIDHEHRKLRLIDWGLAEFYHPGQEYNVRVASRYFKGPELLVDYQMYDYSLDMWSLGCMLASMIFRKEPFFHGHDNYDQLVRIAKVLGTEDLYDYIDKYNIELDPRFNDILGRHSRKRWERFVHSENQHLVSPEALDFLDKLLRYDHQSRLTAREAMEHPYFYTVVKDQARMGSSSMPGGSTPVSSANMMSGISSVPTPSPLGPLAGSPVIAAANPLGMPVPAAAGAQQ
CK2, sequence (P67870 whole entry partner): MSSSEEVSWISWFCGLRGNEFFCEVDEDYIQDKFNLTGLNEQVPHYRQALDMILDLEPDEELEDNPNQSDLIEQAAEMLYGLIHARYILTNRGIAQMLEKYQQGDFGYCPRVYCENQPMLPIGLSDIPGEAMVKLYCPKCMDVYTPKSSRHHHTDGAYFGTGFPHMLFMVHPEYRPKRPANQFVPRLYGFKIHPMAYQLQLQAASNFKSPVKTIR
How it was run: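 Holoenzyme CK2 assay; compounds pre-incubated with substrate and enzyme, then reacted 150 min at 24-27° C. Remaining ATP measured as luminescence with Kinase Glo, and IC50 derived from the signal.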

[4] = Table 1 activity class, symbol given only if active, read-out: CDC7 IC50 (Activity A)
[5] = compounds in Table 1, read-out: CDC7 IC50 value

CDC7, sequence (O00311 whole entry): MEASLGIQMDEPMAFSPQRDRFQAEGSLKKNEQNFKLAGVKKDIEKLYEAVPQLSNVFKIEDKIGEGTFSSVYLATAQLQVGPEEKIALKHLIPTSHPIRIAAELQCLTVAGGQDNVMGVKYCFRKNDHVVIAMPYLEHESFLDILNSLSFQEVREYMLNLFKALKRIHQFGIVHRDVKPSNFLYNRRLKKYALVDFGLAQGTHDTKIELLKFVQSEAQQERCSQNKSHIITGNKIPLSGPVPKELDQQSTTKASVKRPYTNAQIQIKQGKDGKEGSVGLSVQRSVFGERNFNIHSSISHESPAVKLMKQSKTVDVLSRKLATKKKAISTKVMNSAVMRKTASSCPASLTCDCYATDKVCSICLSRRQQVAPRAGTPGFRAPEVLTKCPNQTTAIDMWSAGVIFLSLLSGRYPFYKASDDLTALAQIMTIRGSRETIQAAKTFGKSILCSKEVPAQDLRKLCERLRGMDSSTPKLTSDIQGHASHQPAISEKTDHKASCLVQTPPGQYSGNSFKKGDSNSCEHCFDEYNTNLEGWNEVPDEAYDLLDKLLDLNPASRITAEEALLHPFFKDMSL
CDC7, sequence (Q9UBU7 whole entry partner): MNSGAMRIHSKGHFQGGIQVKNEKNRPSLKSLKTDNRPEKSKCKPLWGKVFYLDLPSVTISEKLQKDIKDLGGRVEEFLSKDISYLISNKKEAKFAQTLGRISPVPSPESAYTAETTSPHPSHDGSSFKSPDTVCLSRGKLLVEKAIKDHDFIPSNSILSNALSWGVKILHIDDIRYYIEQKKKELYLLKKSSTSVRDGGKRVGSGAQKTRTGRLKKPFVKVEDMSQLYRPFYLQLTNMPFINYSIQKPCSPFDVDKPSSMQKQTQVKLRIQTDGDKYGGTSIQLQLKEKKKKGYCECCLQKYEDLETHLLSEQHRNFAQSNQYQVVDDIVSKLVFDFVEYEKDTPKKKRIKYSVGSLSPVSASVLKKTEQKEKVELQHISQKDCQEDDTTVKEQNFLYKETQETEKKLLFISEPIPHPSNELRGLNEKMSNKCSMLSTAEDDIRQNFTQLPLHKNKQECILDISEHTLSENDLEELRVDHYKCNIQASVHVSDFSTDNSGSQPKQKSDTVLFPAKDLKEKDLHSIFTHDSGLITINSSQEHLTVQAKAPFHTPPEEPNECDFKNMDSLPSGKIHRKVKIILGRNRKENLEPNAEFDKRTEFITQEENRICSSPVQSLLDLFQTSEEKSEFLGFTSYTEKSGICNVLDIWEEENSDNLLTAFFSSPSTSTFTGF

Row | Structure (SMILES) | pIC50 [1, 4] | pIC50 [2] | pIC50 [3] | pIC50 [1, 5]
1 | O=C(Nc1ccc(-c2nc3c(oc4ccc(Br)cc43)c(=O)[nH]2)c(Cl)c1)c1ccon1 [Compound 363, N-[4-(8-bromo-4-oxo-3,4-dihydro[1]benzofuro[3,2-d]pyrimidin-2-yl)-3-chlorophenyl]isoxazole-3-carboxamide] | > 5.00 | > 5.00 | > 5.00 | –
2 | COc1ccc2oc3c(=O)[nH]c(-c4ccc(F)cc4Cl)nc3c2c1 [Compound 144, 2-(2-chloro-4-fluorophenyl)-8-(methyloxy)[1]benzofuro[3,2-d]pyrimidin-4(3H)-one] | > 5.00 | > 5.00 | > 5.00 | –
3 | O=C(N[C@@H]1CN(Cc2nc3c(oc4ccc(Br)cc43)c(=O)[nH]2)C[C@H]1O)C1CCNCC1 [Compound 388, N-{(3R,4R)-1-[(8-bromo-4-oxo-3,4-dihydro[1]benzofuro[3,2-d]pyrimidin-2-yl)methyl]-4-hydroxypyrrolidin-3-yl}piperidine-4-carboxamide] | > 5.00 | > 5.00 | > 5.00 | –
4 | NC1CCC(c2nc3c(oc4ccc(Br)cc43)c(=O)[nH]2)CC1 (stereo not shown) [Compound 223, 2-(4-Aminocyclohexyl)-8-bromo[1]benzofuro[3,2-d]pyrimidin-4(3H)-one] | > 5.00 | > 5.00 | > 5.00 | > 7.00
5 | CN1CCCN(Cc2nc3c(oc4ccc(Br)cc43)c(=O)[nH]2)CC1 [Compound 426, 8-bromo-2-[(4-methyl-1,4-diazepan-1-yl)methyl][1]benzofuro[3,2-d]pyrimidin-4(3H)-one] | > 5.00 | > 5.00 | > 5.00 | > 7.00
6 | CO[C@@H]1CCN(Cc2nc3c(oc4ccc(Br)cc43)c(=O)[nH]2)C1 [Compound 408, 8-bromo-2-{[(3R)-3-(methyloxy)pyrrolidin-1-yl]methyl}[1]benzofuro[3,2-d]pyrimidin-4(3H)-one] | > 5.00 | > 5.00 | > 5.00 | > 7.00
7 | O=c1[nH]c(C2CCNC2)nc2c1oc1ccc(Br)cc12 (stereo not shown) [Compound 186, 8-bromo-2-pyrrolidin-3-yl[1]benzofuro[3,2-d]pyrimidin-4(3H)-one] | > 5.00 | > 5.00 | > 5.00 | > 7.00
8 | Cc1ccc2oc3c(=O)[nH]c(CN4CC[C@H](O)C4)nc3c2c1N [Compound 440, 9-amino-2-{[(3S)-3-hydroxypyrrolidin-1-yl]methyl}-8-methyl[1]benzofuro[3,2-d]pyrimidin-4(3H)-one] | > 5.00 | > 5.00 | > 5.00 | –
9 | Cc1n[nH]c2ccc(-c3nc4c(oc5ccc(Br)cc54)c(=O)[nH]3)cc12 [Compound 123, 8-bromo-2-(3-methyl-1H-indazol-5-yl)[1]benzofuro[3,2-d]pyrimidin-4(3H)-one] | > 5.00 | > 5.00 | > 5.00 | –
10 | O=C(Nc1ccc(-c2nc3c(oc4ccc(Br)cc43)c(=O)[nH]2)c(Cl)c1)C1CCNC1 (stereo not shown) [Compound 178, N-[4-(8-bromo-4-oxo-3,4-dihydro[1]benzofuro[3,2-d]pyrimidin-2-yl)-3-chlorophenyl]pyrrolidine-3-carboxamide] | > 5.00 | > 5.00 | > 5.00 | –
11 | O=c1[nH]c(CNc2cccnc2)nc2c1oc1ccc(Br)cc12 [Compound 13, 8-bromo-2-[(pyridin-3-ylamino)methyl][1]benzofuro[3,2-d]pyrimidin-4(3H)-one] | > 5.00 | > 5.00 | > 5.00 | –
12 | O=c1[nH]c(C2CCN(Cc3ccncc3)C2)nc2c1oc1ccc(Br)cc12 (stereo not shown) [Compound 290, 8-bromo-2-[1-(pyridin-4-ylmethyl)pyrrolidin-3-yl][1]benzofuro[3,2-d]pyrimidin-4(3H)-one] | > 5.00 | > 5.00 | > 5.00 | –
13 | O=c1[nH]c(-c2ccc(CNCCN3CCCCC3)cc2Cl)nc2c1oc1ccc(Br)cc12 [Compound 385, 8-bromo-2-(2-chloro-4-{[(2-piperidin-1-ylethyl)amino]methyl}phenyl)[1]benzofuro[3,2-d]pyrimidin-4(3H)-one] | > 5.00 | > 5.00 | > 5.00 | –
